Test results reported in patent US11066423B2, “Monomeric bimetal hydroxycitric acid compounds and methods of making and using the same” (GLYKON TECHNOLOGIES GROUP, LLC, priority 2016, dated 2021).

Assays:
[1] = system: de novo lipogenesis (DNL); assay: Decrease of de novo lipogenesis in rats (literature); format: in vivo; conditions: extrapolated from rats
Excerpt: Dosages of various HCA compositions found to be effective are quite large, indeed beyond the normal range for pharmaceutical products, with efficacy that is highly variable. […] A later study found a significant, yet limited effect after 7 days of a diet designed specifically to induce de novo lipogenesis in humans. (Physiol Behay. 2006 Jul. 30; 88(4-5):371-81). See also, Nutr Metab (Lond). 2005 Sep. 13; 2:23.

[2] = system: de novo lipogenesis (DNL); conditions: obese subjects, 6 g HCA/day for 5 days; cited from earlier work
[3] = Conductivity of solutions (electrical conductivity, HACH Conductivity/TDS meter); format: physicochemical
Excerpt: The structure of the subject compounds (e.g., as described herein) can be deduced using a conductance meter to observe the extent of dissociate of the first and/or second metals from the compounds. In an experiment described below equimolar samples and comparative electrolyte conductance to K-acetate solution as a standard, data may be obtained which is characteristic of electrolyte binary conductants. […] The KMgHCA solution in water may have a pH 8-10 depending on the concentration. Under this condition, the heterocyclic anion formed will tend toward a stable form rather than an ionizable one.
Several experiments investigating the electrical conductivities of solutions of KMgHCA, KZnHCA and KMnHCA were performed. The equipment used was HACH Conductivity/TDS meter, P/N=4460-00.
Materials: KMgHCA.4H2O, KZnHCA.2H2O, KMnHCA.2H2O were prepared using methods described herein. KC2H3O2 and […] was obtained from Merck. H2O used was demineralized water.
General procedure: All the HCA compounds and Acetate were weighed and placed in a volumetric flask and dissolved with demineralized water to one liter solution and then they were tested the conductivity (EC).

Osteoporosis = assay: Example 14: comparison of KCaHCA and/or KMgHCA compositions, single subject; format: in vivo, human; conditions: for symptoms of osteoporosis: 200 mg 3 times a day after meals; for subject's condition during the regimen: 200 mg doses 3 times a day, sequential regimens in the same subject after 3 months of the blend
Procedure: • Subject: (cited as Example 12, above) • • Problem: Osteoporosis Treatment: Materials were consumed 3 times a day after meals. • Experiment 1. Blending 150 mg KMgHCA.8H2O+50 mg KCaHCA.3H2O • A 200 mg mixture of KCaHCA (25%) and KMgHCA (75%) prepared according to the subject methods was used. The actual percentage of calcium was (40/338)×25%=2.96%. Since KCaHCA.3H2O was used the percentage of magnesium in the composition was (24/412)×75%=4.37%. Since KMgHCA.8H2O was used, the ratio Ca:Mg=0.15:0.36 in mmol. • Experiment 2. 200 mg KMgHCA.8H2O • Experiment 3.

[4] = system: osteoporosis and calcification on hand and leg; assay: Example 13: comparison of different bimetal regimes (KMg vs. KCa vs. combination), two subjects; format: in vivo, human; parameters: key to Treatment performance: + +: very good performance; + −: good but slight complaint
Procedure: Subject I: a person, 40 kg (cited in Example 11, above)
Subject II: a person; 72 kg
• Treatment: A. Mixture 25% KCa HCA+75% KMg HCA bimetals (100-200 mg) • B. Only KMg HCA bimetal Results: […]

[5] = cited from earlier work
[6] = 0.3 mmol/l in demineralized water, no additive

Structure (SMILES): O=C(O)CC(O)(C(=O)O)C(O)C(=O)O (stereo not drawn) [HCA, Hydroxycitric acid]
- effective dose extrapolated to a 70 kg human being [1]: approximately 4.5 g/day
- inhibition of DNL / promotion of fatty acid oxidation [2]: failed to inhibit DNL

Structure (SMILES): CC(=O)[O-].[K+] [KC2H3O2, K-acetate, reference compound]
- E. C (μS/cm) [3, 6]: 56.06 μS/cm

Structure (SMILES): O=C([O-])C[C@@](O)(C(=O)[O-])[C@H](O)C(=O)[O-].[Ca+2].[K+] [KCaHCA]
- symptoms of osteoporosis (Osteoporosis): not effective
- subject's condition during the regimen (Osteoporosis): unable to move their leg

Structure (SMILES): O=C1CC(O)(C(O)C(=O)[O-])C(=O)[O][Mg][O]1.[K+] (stereo not drawn) [KMgHCA, Potassium Magnesium Bimetal HCA Compound]
- κ value contribution of Mg—O bond (half of the 2 bond contribution) ([3]; 0.3 mmol/l): 2.095 μS/cm
- E. C (μS/cm) [3, 6]: 60.25 μS/cm
- E. C (μS/cm) ([3]; 0.3 mmol/l, additive 10 mg gliserol): 60.23 μS/cm
- E. C (μS/cm) ([3]; 0.3 mmol/l, additive 10 mg glucose): 60.29 μS/cm
- 2 bond of Mg—O contribution to κ value ([3]; run 2 minus run 1 (60.25-56.06)): ~4.19 μS/cm
- Treatment performance ([4]; Patient II (72 kg)): + −
- observed result following treatment ([4]; Subject II): could stand on their feet
- reduction of symptoms ([4]; Subject II): partial reduction of symptoms
- symptoms of osteoporosis (Osteoporosis): partial improvement
- subject's condition during the regimen (Osteoporosis): slight difficult to walk because feeling of burning sensation in their feet

Structure (SMILES): O=C1CC(O)(C(O)C(=O)[O][Mg][O]C(=O)C(O)C2(O)CC(=O)[O][Mg][O]C2=O)C(=O)[O][Mg][O]1 (stereo not drawn) [Mg3(HCA)2•2H2O, reference compound]
- E. C (μS/cm) ([3]; 0.1 mmol/l in demineralized water (equimolar in Mg2+ to run 8)): 31.2 μS/cm

Structure (SMILES): CC(=O)[O-].CC(=O)[O-].O.O.O.O.[Mg+2] [Mg(CH3COO)2•4H2O, reference compound]
- E. C (μS/cm) [3, 6]: 32.3 μS/cm

Structure (SMILES): O=C(O)CO [glycolic acid]
- pKa [5]: approx 3.83
